From patent publication US20100041089A1, “IMPROVED METHOD FOR DETECTING CHEMICAL […]” (priority 2006, published 2010)

Test system: yeast genes (expressed mRNA)
Assay: DNA chip measurement of expressed mRNA of yeast genes after culture with a toxic chemical substance
Format: cell-based, Saccharomyces cerevisiae S288C
Procedure, shortened: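 Two-hour exposure of growing S. cerevisiae S288C (YPD, 25° C) to a sublethal toxicant preceded RNA isolation. Fluorescent cDNA was hybridized to a whole-genome array; a treated-to-untreated signal ratio of two or more was taken as significant.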

Q: Which results are given for C=CC=O [(14), Acrolein]?
A: The level of expressed mRNA in the presence of chemical substance/The level of expressed mRNA in the absence of chemical substance (yeast gene YAL053W, cultured two hours with substance): 0.7; The level of expressed mRNA in the presence of chemical substance/The level of expressed mRNA in the absence of chemical substance (yeast gene YAR028W, cultured two hours with substance): 1.2; The level of expressed mRNA in the presence of chemical substance/The level of expressed mRNA in the absence of chemical substance (yeast gene YBL048W, cultured two hours with substance): 2.0; The level of expressed mRNA in the presence of chemical substance/The level of expressed mRNA in the absence of chemical substance (yeast gene YBL049W, cultured two hours with substance): 1.5; The level of expressed mRNA in the presence of chemical substance/The level of expressed mRNA in the absence of chemical substance (yeast gene YBL064C (detoxification protein gene)): 5.0; The level of expressed mRNA in the presence of chemical substance/The level of expressed mRNA in the absence of chemical substance (yeast gene YBL107C, cultured two hours with substance): 2.5; The level of expressed mRNA in the presence of chemical substance/The level of expressed mRNA in the absence of chemical substance (yeast gene YBR062C, cultured two hours with substance): 2.6; The level of expressed mRNA in the presence of chemical substance/The level of expressed mRNA in the absence of chemical substance (yeast gene YBR116C, cultured two hours with substance): 2.7; The level of expressed mRNA in the presence of chemical substance/The level of expressed mRNA in the absence of chemical substance (yeast gene YCR013C, cultured two hours with substance): 1.5; The level of expressed mRNA in the presence of chemical substance/The level of expressed mRNA in the absence of chemical substance (yeast gene YCR102C, cultured two hours with substance): 4.1; The level of expressed mRNA in the presence of chemical substance/The level of expressed mRNA in the absence of chemical substance (yeast gene YDL021W, cultured for two hours with substance): 3.7; The level of expressed mRNA in the presence of chemical substance/The level of expressed mRNA in the absence of chemical substance (yeast gene YDL059C, DNA repair protein genes, cultured two hours with substance): 4.7; The level of expressed mRNA in the presence of chemical substance/The level of expressed mRNA in the absence of chemical substance (yeast gene YDL072C, cultured two hours with substance): 1.8; The level of expressed mRNA in the presence of chemical substance/The level of expressed mRNA in the absence of chemical substance (yeast gene YDL204W, cultured two hours with substance): 2.4; The level of expressed mRNA in the presence of chemical substance/The level of expressed mRNA in the absence of chemical substance (yeast gene YDL218W, cultured two hours with substance): 4.8; The level of expressed mRNA in the presence of chemical substance/The level of expressed mRNA in the absence of chemical substance (yeast gene YDL222C, cultured two hours with substance): 1.3; The level of expressed mRNA in the presence of chemical substance/The level of expressed mRNA in the absence of chemical substance (yeast gene YDR031W, cultured two hours with substance): 2.5; The level of expressed mRNA in the presence of chemical substance/The level of expressed mRNA in the absence of chemical substance (yeast gene YDR330W, cultured two hours with substance): 1.1; The level of expressed mRNA in the presence of chemical substance/The level of expressed mRNA in the absence of chemical substance (yeast gene YDR391C, cultured two hours with substance): 2.3; The level of expressed mRNA in the presence of chemical substance/The level of expressed mRNA in the absence of chemical substance (yeast gene YDR411C, cultured two hours with substance): 0.8; The level of expressed mRNA in the presence of chemical substance/The level of expressed mRNA in the absence of chemical substance (yeast gene YDR486C, cultured two hours with substance): 2.4; The level of expressed mRNA in the presence of chemical substance/The level of expressed mRNA in the absence of chemical substance (yeast gene YDR511W, cultured two hours with substance): 2.2; The level of expressed mRNA in the presence of chemical substance/The level of expressed mRNA in the absence of chemical substance (yeast gene YDR545W, cultured two hours with substance): 0.7; The level of expressed mRNA in the presence of chemical substance/The level of expressed mRNA in the absence of chemical substance (yeast gene YEL001C, cultured two hours with substance): 1.3; The level of expressed mRNA in the presence of chemical substance/The level of expressed mRNA in the absence of chemical substance (yeast gene YEL057C, cultured two hours with the chemical substance): 1.5; The level of expressed mRNA in the presence of chemical substance/The level of expressed mRNA in the absence of chemical substance (yeast gene YER004W, cultured two hours with substance): 1.8; The level of expressed mRNA in the presence of chemical substance/The level of expressed mRNA in the absence of chemical substance (yeast gene YER012W): 4.6; The level of expressed mRNA in the presence of chemical substance/The level of expressed mRNA in the absence of chemical substance (yeast gene YER035W, cultured two hours with substance): 1.0; The level of expressed mRNA in the presence of chemical substance/The level of expressed mRNA in the absence of chemical substance (yeast gene YER038C, cultured two hours with substance): 1.3; The level of expressed mRNA in the presence of chemical substance/The level of expressed mRNA in the absence of chemical substance (yeast gene YER079W, cultured two hours with substance): 1.6; The level of expressed mRNA in the presence of chemical substance/The level of expressed mRNA in the absence of chemical substance (yeast gene YER106W, cultured two hours with substance): 1.5; The level of expressed mRNA in the presence of chemical substance/The level of expressed mRNA in the absence of chemical substance (yeast gene YER158C, cultured two hours with substance): 0.9; The level of expressed mRNA in the presence of chemical substance/The level of expressed mRNA in the absence of chemical substance (yeast gene YER163C, cultured two hours with substance): 1.9; The level of expressed mRNA in the presence of chemical substance/The level of expressed mRNA in the absence of chemical substance (yeast gene YER175C, cultured two hours with substance): 1.1; The level of expressed mRNA in the presence of chemical substance/The level of expressed mRNA in the absence of chemical substance (yeast gene YFL006W, cultured two hours with substance): 1.7; The level of expressed mRNA in the presence of chemical substance/The level of expressed mRNA in the absence of chemical substance (yeast gene YFL010C, cultured two hours with substance): 1.4; The level of expressed mRNA in the presence of chemical substance/The level of expressed mRNA in the absence of chemical substance (yeast gene YFL014W, DNA repair protein genes, cultured two hours with substance): 7.3; The level of expressed mRNA in the presence of chemical substance/The level of expressed mRNA in the absence of chemical substance (yeast gene YFL024C, cultured two hours with substance): 3.3; The level of expressed mRNA in the presence of chemical substance/The level of expressed mRNA in the absence of chemical substance (yeast gene YFL032W, cultured two hours with substance): 0.6; The level of expressed mRNA in the presence of chemical substance/The level of expressed mRNA in the absence of chemical substance (yeast gene YFR003C, cultured two hours with substance): 2.1; The level of expressed mRNA in the presence of chemical substance/The level of expressed mRNA in the absence of chemical substance (yeast gene YGL037C, cultured two hours with substance): 1.0; The level of expressed mRNA in the presence of chemical substance/The level of expressed mRNA in the absence of chemical substance (yeast gene YGL047W, cultured two hours with substance): 2.3
